According to patent US20210069145A1, “COMPOSITIONS AND METHODS FOR REDUCING A FATTY ACID DESATURATION INDEX IN A SUBJECT IN NEED THEREOF” (Amarin Pharmaceuticals Ireland Limited, priority 2013, published 2021):

What was measured:
[1] = test system: fatty acid desaturation index (FADI), RBCs; assay: Fatty acid desaturation index (FADI) ratios in red blood cells, 12-week placebo-controlled study; type: in vivo, human; conditions: 4 g/day, 12 weeks, placebo-adjusted, from baseline
Experimental: (§1) A multi-center, placebo-controlled, randomized, double-blind, 12-week study was performed to evaluate the efficacy and safety of >96% E-EPA in patients with fasting triglyceride levels ≥200 mg/dl and <500 mg/dl despite statin therapy (the mean of two qualifying entry values needed to be ≥185 mg/dl and at least one of the values needed to be ≥200 mg/dl). The primary objective of the study was to determine the efficacy of >96% E-EPA 2 g daily and 4 g daily, compared to placebo, in lowering fasting TG levels in patients with high risk for cardiovascular disease and with fasting TG levels ≥200 mg/dl and <500 mg/dl, despite treatment to LDL-C goal on statin therapy.
The population for this study was men and women >18 years of age with a body mass index ≤45 kg/m^2 with fasting TG levels greater than or equal to 200 mg/dl and less than 500 mg/dl and on a stable does of statin therapy (with or without ezetimibe). The statin was atorvostatin, rosuvastatin or simvastatin. The dose of statin must have been stable for ≥4 weeks prior to the LDL-C/TG baseline qualifying measurement for randomization. The statin dose was optimized such that the patients are at their LDL-C goal at the LDL-C/TG baseline qualifying measurements. The same statin at the same dose was continued until the study ended. […]
(§2) The primary efficacy variable for the double-blind treatment period was percent change in TG from baseline to Week 12 endpoint. The secondary efficacy variables for the double-blind treatment period included the following: • Percent changes in total cholesterol (TC), high-density lipoprotein cholesterol (HDL-C), LDL-C, calculated non-HDL-C, and very low-density lipoprotein cholesterol (VLDL-C) from baseline to Week 12 endpoint; • Percent change in very low-density lipoprotein TG from baseline to Week 12; • Percent changes in apolipoprotein A-I (apo A-I), apolipoprotein B (apo B), and apo A-I/apo B ratio from baseline to Week 12; • Percent changes in lipoprotein(a) from baseline to Week 12; • Percent changes in LDL particle number and size, measured by nuclear magnetic resonance, from baseline to Week 12; • Percent change in remnant-like particle cholesterol from baseline to Week 12; • Percent change in oxidized LDL from baseline to Week 12; • Changes in FPG and HbA1c from baseline to Week 12; • Change in insulin resistance, as assessed by the homeostasis model index insulin resistance, from baseline to Week 12; • Percent change in lipoprotein associated phospholipase A2 (Lp-PLA2) from baseline to Week 12; • Change in intracellular adhesion molecule-1 from baseline to Week 12; • Change in interleukin-2 from baseline to Week 12; • Change in plasminogen activator inhibitor-1 from baseline to Week 12. […]

[2] = test system: Lipoprotein Particle Sizes; assay: Lipoprotein particle sizes, 12-week double-blind placebo-controlled study of >96% E-EPA in statin-treated patients; type: in vivo, human; conditions: 12 weeks; for LDL particle size, % Δ / HDL particle size, % Δ / VLDL particle size, % Δ: median change from baseline; for LDL particle size, End / HDL particle size, End / VLDL particle size, End: median
Experimental: as §1
The population for this study was men and women >18 years of age with a body mass index ≤45 kg/m^2 with fasting TG levels greater than or equal to 200 mg/dl and less than 500 mg/dl and on a stable does of statin therapy (with or without ezetimibe). The statin was atorvostatin, rosuvastatin or simvastatin. The dose of statin must have been stable for ≥4 weeks prior to the LDL-C/TG baseline qualifying measurement for randomization. The statin dose was optimized such that the patients are at their LDL-C goal at the LDL-C/TG baseline qualifying measurements. The same statin at the same dose was continued until the study ended.
Approximately 702 patients were randomized at approximately 80 centers in the U.S. The study was a 18- to 20-week, Phase 3, multi-center study consisting of 2 study periods: (1) A 6- to 8-week screening period that included a diet and lifestyle stabilization, a non-statin lipid-altering treatment washout, and an LDL-C and TG qualifying period and (2) A 12-week, double-blind, randomized, placebo-controlled treatment period.
After confirmation of qualifying fasting LDL-C and TG values, eligible patients entered a 12-week, randomized, double-blind treatment period. At Visit 4 (Week 0), patients were randomly assigned to 1 of the following treatment groups: • >96% E-EPA 2 g daily, • >96% E-EPA 4 g daily, or • Placebo.
During the double-blind treatment period, patients were to take 2 capsules (>96% E-EPA or matching placebo) in the morning and 2 capsules in the evening for a total of 4 capsules per day. • Patients in the >96% E-EPA 2 g/day treatment group received 1>96% E-EPA 1 g capsule and 1 matching placebo capsule in the morning and in the evening. • Patients in the >96% E-EPA 4 g/day treatment group received 2>96% E-EPA 1 g capsules in the morning and evening.
as §2

[3] = listed as Ethyl Eicosapentaenoate
[4] = 4 g/day, Hodges-Lehmann median, listed as E-EPA

Structure (SMILES): CC/C=C\C/C=C\C/C=C\C/C=C\C/C=C\CCCC(=O)OCC [ethyl eicosapentaenoate, all-cis eicosa-5,8,11,14,17-pentaenoic acid ethyl ester]
- FADI-16 (Palmitoleic acid/Palmitic acid, C16:1/C16:0) % Change, RBCs [1]: significantly reduced
- FADI-18 (Oleic acid/Stearic Acid, C18:1/C18:0) % Change, RBCs [1]: significantly reduced
- FADI-16 (Palmitoleic acid/Palmitic acid, C16:1/C16:0) % Change, RBCs [1, 3]: −15.7%
- FADI-18 (Oleic acid/Stearic Acid, C18:1/C18:0) % Change, RBCs [1, 3]: −3.1%
- HDL particle size, Placebo-Adjusted Median Change from Baseline 2 g/d, % ([2]; 2 g/day, Hodges-Lehmann median): 0.0%
- LDL particle size, Placebo-Adjusted Median Change from Baseline 2 g/d, % ([2]; 2 g/day, Hodges-Lehmann median): +0.5%
- VLDL particle size, Placebo-Adjusted Median Change from Baseline 2 g/d, % ([2]; 2 g/day, Hodges-Lehmann median): −4.8%
- LDL particle size, % Δ ([2]; 2 g/day, n = 221): +0.5%
- HDL particle size, % Δ ([2]; 2 g/day, n = 222): 0.0%
- VLDL particle size, % Δ ([2]; 2 g/day, n = 222): −5.0%
- LDL particle size, End ([2]; 2 g/day, n = 221): 20.0 nm
- HDL particle size, End ([2]; 2 g/day, n = 222): 8.6 nm
- VLDL particle size, End ([2]; 2 g/day, n = 222): 53.2 nm
- HDL particle size, Placebo-Adjusted Median Change from Baseline 4 g/d, % ([2]; 4 g/day, Hodges-Lehmann median): significantly reduced
- LDL particle size, Placebo-Adjusted Median Change from Baseline 4 g/d, % ([2]; 4 g/day, Hodges-Lehmann median): modest but significant increase
- VLDL particle size, Placebo-Adjusted Median Change from Baseline 4 g/d, % ([2]; 4 g/day, Hodges-Lehmann median): significantly reduced
- HDL particle size, Placebo-Adjusted Median Change from Baseline 4 g/d, % [2, 4]: −1.2%
- LDL particle size, Placebo-Adjusted Median Change from Baseline 4 g/d, % [2, 4]: +0.5%
- VLDL particle size, Placebo-Adjusted Median Change from Baseline 4 g/d, % [2, 4]: −7.7%
- LDL particle size, % Δ ([2]; 4 g/day, n = 215): +0.5%
- HDL particle size, % Δ ([2]; 4 g/day, n = 216): −1.1%
- VLDL particle size, % Δ ([2]; 4 g/day, n = 216): −8.1%
- LDL particle size, End ([2]; 4 g/day, n = 215): 20.0 nm
- HDL particle size, End ([2]; 4 g/day, n = 216): 8.6 nm
- VLDL particle size, End ([2]; 4 g/day, n = 216): 51.2 nm
